{"source": "patent US7010431B2", "about": "“Method for effecting computer implemented decision-support in the selection of the drug therapy of patients having a viral disease” (F. Hoffman-LaRoche Ltd., priority 2000, dated 2006)", "origin": "cited, not measured here", "key": {"[1]": {"test_system": "HIV reverse transcriptase (RT) substitutions", "set-up": "key: 0 (low resistance); 3 (high resistance)"}, "[2]": {"test_system": "HIV protease (P) substitutions", "set-up": "key: 0 (low resistance); 3 (high resistance)"}, "[3]": {"conditions": "substitution 48 V, drug level 100"}}, "note": "Like-named read-outs stand apart in the source and are kept apart here."}
{"compound": "Nc1nc(NC2CC2)c2ncn([C@H]3C=C[C@@H](CO)C3)c2n1", "note": "[ABC]", "values": [{"measurement": "resistance @ level", "setting": "[1]; substitution 184 + two of (41, 67, 70, 210, 215, 219), drug level 10000", "result": 2}]}
{"compound": "CC(C)(C)NC(=O)[C@@H]1CN(Cc2cccnc2)CCN1C[C@@H](O)C[C@@H](Cc1ccccc1)C(=O)N[C@H]1c2ccccc2C[C@H]1O", "note": "[IND]", "values": [{"measurement": "resistance @ level", "setting": "[2]; [3]", "result": 0}, {"measurement": "resistance @ level", "setting": "[2]; substitution 82A/F/T/S, drug level 100", "result": 1}]}
{"compound": "Nc1ccn([C@@H]2CS[C@H](CO)O2)c(=O)n1", "note": "[3TC]", "values": [{"measurement": "resistance @ level", "setting": "[1]; substitution 69SS + 215, drug level 100", "result": 2}]}
{"compound": "Cc1cn([C@H]2C=C[C@@H](CO)O2)c(=O)[nH]c1=O", "note": "[D4T]", "values": [{"measurement": "resistance @ level", "setting": "[1]; substitution three of (41, 67, 70, 210, 215, 219), drug level 100", "result": 1}]}
{"compound": "Cc1cn([C@H]2C[C@H](N=[N+]=[N-])[C@@H](CO)O2)c(=O)[nH]c1=O", "note": "[ZDV]", "values": [{"measurement": "resistance @ level", "setting": "[1]; substitution 215Y/F + 41, drug level 100", "result": 3}]}
{"compound": "CC(C)CN(C[C@@H](O)[C@H](Cc1ccccc1)NC(=O)O[C@H]1CCOC1)S(=O)(=O)c1ccc(N)cc1", "note": "[AMP]", "values": [{"measurement": "resistance @ level", "setting": "[2]; substitution 90M/I, drug level 10000", "result": 1}]}
{"compound": "CC(C)(C)NC(=O)[C@@H]1C[C@@H]2CCCC[C@@H]2CN1C[C@@H](O)[C@H](Cc1ccccc1)NC(=O)[C@H](CC(N)=O)NC(=O)c1ccc2ccccc2n1", "note": "[FTV]", "values": [{"measurement": "resistance @ level", "setting": "[2]; [3]", "result": 1}]}
{"compound": "Cc1c(O)cccc1C(=O)N[C@@H](CSc1ccccc1)[C@H](O)CN1C[C@H]2CCCC[C@H]2C[C@H]1C(=O)NC(C)(C)C", "note": "[NFV]", "values": [{"measurement": "resistance @ level", "setting": "[2]; substitution 84 + 90 + 46, drug level 100", "result": 3}]}
{"compound": "Cc1ccnc2c1NC(=O)c1cccnc1N2C1CC1", "note": "[NVP]", "values": [{"measurement": "resistance @ level", "setting": "[1]; substitution 236, drug level 100", "result": 0}]}
